Assay [1] concerns the target T1, TPKC1 (Homo sapiens, UniProt O95069, D309R/L311V/L365I/T411A/W310L).
T1 sequence (O95069 1-426 D309R/W310L/L311V/L365I/T411A): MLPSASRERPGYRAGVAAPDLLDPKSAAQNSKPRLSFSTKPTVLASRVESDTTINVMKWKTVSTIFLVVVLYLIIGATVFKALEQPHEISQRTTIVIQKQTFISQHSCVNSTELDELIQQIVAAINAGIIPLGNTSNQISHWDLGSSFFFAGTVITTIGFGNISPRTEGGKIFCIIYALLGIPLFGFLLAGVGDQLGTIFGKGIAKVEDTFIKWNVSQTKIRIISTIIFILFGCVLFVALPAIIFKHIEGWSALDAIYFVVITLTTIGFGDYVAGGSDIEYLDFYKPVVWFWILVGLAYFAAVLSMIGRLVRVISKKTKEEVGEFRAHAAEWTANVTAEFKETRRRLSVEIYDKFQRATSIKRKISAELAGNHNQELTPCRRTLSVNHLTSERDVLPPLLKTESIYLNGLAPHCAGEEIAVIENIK
The assay can be described thus: Growth of TPKC1-containing CY162 cells on low potassium media. In kind it is cell-based. On the set-up: The TPKC1 ORF was amplified by PCR with 5′ primer; expressed in transfected cells. The settings on record: low (2-3 mM KCl) potassium media. An excerpt:
The TPKC1 ORF was amplified using oligos that added restriction endonuclease cleavage sites appropriate for insertion into the yeast expression vectors pLP100 and pYES2 (Invitrogen). The corresponding TPKC1 expression plasmids, pLP155 and pLP156, were constructed using standard molecular biological methodology and used to transform S. cerevisiae CY162 cells using the lithium acetate method. The resulting yeast strains were examined for their ability to grow on standard synthetic agar media containing a low concentration of KCl. Expression of TPKC1 in CY162 cells supports their growth on low (2-3 mM KCl) potassium media. […] The growth of TPKC1-containing CY162 cells was inhibited by the known potassium channel blockers Ba^2+, Ca^2+, Cs^+, and quinine, but not by TEA. The oligos used for the cloning of 5′ and 3′ RACE fragments were used in this analysis as well.
LY890 (MAT trk1:: LYS2 trk2::TRP1 ura3-52 lys2-801, ade2-101, trp1-Δ63, his3-Δ200, leu2-Δ1) was constructed by deletion of the TRK1 and TRK2 genes from the parent yeast strain YPH500 (Stratagene). The full length TPKC1 ORF fragment was generated by PCR; 5′ primer (5′-AAAAGATCTAAAATGCTTCCCAGCGCC-3′), 3′ primer (AAAGTCGACCTATTTGATGTTCTCAAT-3′) and inserted into the yeast expression vector pLP100 [18] to yield pLP155. pLP155 was used to transform S. cerevisiae LY890 cells using standard methods. CY162 was constructed as described in J. A. Anderson et al., Proc. Natl. Acad. Sci. USA 89, 3736-3740 (1992). Yeast cells (10^5) containing the indicated plasmids were plated in RPD (arginine phosphate glucose) low potassium (2 mM) agar media and compounds applied to the surface of the agar.

The target in assay [2] is T2, DmORF1 (Drosophila melanogaster, UniProt Q94526). The assay can be described thus: Yeast agar plate bioassay, DmORF1-dependent growth of CY162. On the set-up: A single long open reading frame sufficient to encode a protein of 618 amino acids (predicted MW 68 kDa) is encoded in pDmORF1; expressed in transfected cells; host or cells: Saccharomyces cerevisiae CY162 (trk1 trk2) carrying pDmORF1 (pYES2 library plasmid). It counts as cell-based. The settings on record: CY162 yeast bearing pDmORF1; filter disk with 20 μl of 1 M solution; arginine phosphate agar, 0.2 mM KCl. As to the method: (§1) FIG. 8. Inhibition of growth of yeast cells containing heterologous potassium channels. CY162 cells (10^5) bearing the indicated plasmids are plated in arginine phosphate agar medium containing 0.2 mM potassium chloride. Sterile filter disks were placed on the surface of the agar and saturated with 20 μl of a 1 M solution of potassium channel blocking compound. Clockwise from upper left-hand comer is BaCl2, CsCl, TEA, and RbCl. KCl is applied to the center disk.
(§2) Yeast strains dependent on heterologous potassium channels for growth should be sensitive to non-specific potassium channel blocking compounds. To test the potassium channel blocking properties of several compounds, a convenient agar plate bioassay is employed. Strains containing pKAT1, pRATRAK, pDmORF1, and pYES2 are plated in arginine-phosphate-dextrose agar medium lacking ura and containing various amounts of potassium chloride. Arginine-phosphate-dextrose medium is used to avoid interference from potassium and ammonium ions present in standard synthetic yeast culture medium. Sterile filter disks were placed on the surface of the agar and saturated with potassium channel blocking ions CsCl, BaCl2, and TEA. The growth of heterologous potassium channel containing strains is inhibited by potassium channel blocking ions, in a channel dependent manner. DmORF1-dependent growth is blocked by BaCl2 but not by CsCl or TEA. KAT-dependent growth is blocked by BaCl2, CsCl and TEA. RATRAK-dependent growth is blocked by BaCl2, CsCl and TEA to a much greater extent than pKAT1, reflecting in part a slower growth rate of pRATRAK-containing cells.

The target in assay [3] is T3, RATRAK (Rattus norvegicus, UniProt P63142).
T3 construct: expressed in transfected cells; host or cells: Saccharomyces cerevisiae CY162 carrying pRATRAK
The assay can be described thus: Yeast agar plate bioassay, RATRAK-dependent growth of CY162. In kind it is cell-based. The settings on record: CY162 yeast bearing pRATRAK; filter disk with 20 μl of 1 M solution; blocked to a much greater extent than pKAT1. As to the method:
as §1, §2

Assay [4] concerns the target T1, TPKC1. In words: TPCK1-induced currents in X. laevis oocytes, two-electrode voltage clamp. It counts as cell-based. On the set-up: The TPKC1 ORF was amplified by PCR with 5′ primer; expressed in transfected cells; host or cells: Xenopus laevis oocytes injected with cRNA transcribed from pLP163. The settings on record: for block of TPKC1 current: relative to Ba2+ (50% at 1 mM), data not shown. An excerpt:
The expression vector pLP160 was generated by inserting a poly (A)n tract (n=30) followed by a BglII site between the Not1 and XbaI sites of pBluescript SK (+/−) (Stratagene). The final vector contains a deletion from the poly(A) tract through the BamH1 site. The TPKC1 ORF was amplified by PCR with 5′ primer (5′-AAAAAGCTTGCCACCATGCTTCCCAGCGCC-3′) and 3′ primer (5′-CTA TTT GAT GTT CTC-3′), digested with the HindIII and inserted into the vector pLP160 digested with HindIII and SmaI to give pLP163. This construct was linearized with BglII for in vitro cRNA transcription with T7 RNA polymerase (Ambion). The cRNA was quantified by gel electrophoresis using RNA standards (Gibco BRL). One ng of TPKC1 cRNA (23 nl of 40 ng/μl solution) was microinjected into defolliculated oocytes from Xenopus laevis. Oocytes were incubated at 17° C. with gentle shaking in ND96 medium. Whole cell electrophysiological recordings were taken 1-3 days post-injection at room temperature in a constantly-perfusing bath using a two-electrode voltage clamp protocol of 300 ms pulses from −150 to +60 mV from a holding potential of −90 mV. The interval between pulses was one second. Electrodes (3 MΩ current injection, 30 MΩ voltage recording) contained 4 M potassium acetate.
(In two-electrode clamp one electrode senses voltage and the other passes current.)

Assay [5] has as its target T4, KAT1 (Arabidopsis thaliana, UniProt Q39128).
T4 construct: expressed in transfected cells; host or cells: Saccharomyces cerevisiae CY162 carrying pKAT1
The assay can be described thus: Yeast agar plate bioassay, KAT-dependent growth of CY162. It counts as cell-based, plant. Particulars: CY162 yeast bearing pKAT1; filter disk with 20 μl of 1 M solution; arginine phosphate agar, 0.2 mM KCl. On the procedure: as §1, §2

The test system of assay [6] is CY162 cells. The assay can be described thus: Yeast agar plate bioassay, control pYES2-containing CY162 strain. In kind it is cell-based, Saccharomyces cerevisiae. Particulars: CY162 bearing pYES2; low potassium agar; compound on filter disk. As to the method:
as §1
as §2, with “KAT-dependent growth is blocked by BaCl2, CsCl and TEA. RATRAK-dependent growth is blocked by BaCl2, CsCl and TEA to a much greater extent than pKAT1, reflecting in part a slower growth rate of pRATRAK-containing cells.” left out

The target in assay [7] is T2, DmORF1. The assay can be described thus: 86Rb uptake into CY162 cells containing DmORF1. In kind it is cell-based. On the set-up: A single long open reading frame sufficient to encode a protein of 618 amino acids (predicted MW 68 kDa) is encoded in pDmORF1; expressed in transfected cells; host or cells: Saccharomyces cerevisiae CY162 (trk1 trk2) carrying pDmORF1 (pYES2 library plasmid). Particulars: CY162-DmORF1 yeast cells, Ca-MES buffer, room temperature. As to the method:
Expression of DmORF permits CY162 cells to grow on medium containing a low concentration of potassium, implying that DmORF1 supplies high affinity potassium uptake capacity. To characterize the potassium uptake properties of CY162 cells containing DmORF1, ^86Rb uptake studies were performed.
Yeast strains containing heterologous potassium-expression plasmids CY162-DmORF1, CY162-pKAT and the control strain CY162-pYES2 (Clontech) were cultured overnight in SC Gal-ura containing 0.1 M KCl. The cells were harvested, washed with sterile doubled distilled water and starved for K^+ for 6 hours in Ca-MES buffer. Cells were washed again and distributed to culture tubes (10^8 cells/tube) containing ^86RbCl in Ca-MES buffer.

Assay [8] addresses T2, DmORF1. The assay can be described thus: DmORF1-induced currents in X. laevis oocytes, two-electrode voltage clamp. In kind it is cell-based. On the set-up: A single long open reading frame sufficient to encode a protein of 618 amino acids (predicted MW 68 kDa) is encoded in pDmORF1; expressed in transfected cells. Particulars: two-electrode whole-cell voltage clamp. As to the method: To test this hypothesis, the electrophysiological properties of the putative potassium channel encoded by DmORF1 was examined by expression in X. laevis oocytes. Currents were measured by two-electrode whole-cell voltage clamp. DNA sequences encoding the open reading frame of DmORF1 were amplified by polymerase chain reaction (PCR) using the following oligonucleotides:
The full length PCR product was cloned into corresponding sites in pSP64 poly A (Promega), forming pMP147. Template DNA was linearized with EcoRI and RNA transcribed using the Message Machine (Ambion) in vitro transcription kit according to manufacturers instructions. A sample of the RNA was resolved in a MOPS-acetate-formaldehyde agarose gel and RNA content was estimated by ethidium bromide staining. The remainder was stored on dry ice. X. laevis oocytes were isolated and injected with 50 nl of sterile TE containing 5-20 ng transcript according to published procedures. After three days, whole oocyte currents were recorded using a two-electrode voltage clamp. Electrodes contained 3M KCl and had resistances of 0.3-1.0 MW. Recordings were performed faith constant perfusion at room temperature in the presence of either low (10 mM) or high (90 mM) potassium chloride.

T4 sequence (Q39128 whole entry): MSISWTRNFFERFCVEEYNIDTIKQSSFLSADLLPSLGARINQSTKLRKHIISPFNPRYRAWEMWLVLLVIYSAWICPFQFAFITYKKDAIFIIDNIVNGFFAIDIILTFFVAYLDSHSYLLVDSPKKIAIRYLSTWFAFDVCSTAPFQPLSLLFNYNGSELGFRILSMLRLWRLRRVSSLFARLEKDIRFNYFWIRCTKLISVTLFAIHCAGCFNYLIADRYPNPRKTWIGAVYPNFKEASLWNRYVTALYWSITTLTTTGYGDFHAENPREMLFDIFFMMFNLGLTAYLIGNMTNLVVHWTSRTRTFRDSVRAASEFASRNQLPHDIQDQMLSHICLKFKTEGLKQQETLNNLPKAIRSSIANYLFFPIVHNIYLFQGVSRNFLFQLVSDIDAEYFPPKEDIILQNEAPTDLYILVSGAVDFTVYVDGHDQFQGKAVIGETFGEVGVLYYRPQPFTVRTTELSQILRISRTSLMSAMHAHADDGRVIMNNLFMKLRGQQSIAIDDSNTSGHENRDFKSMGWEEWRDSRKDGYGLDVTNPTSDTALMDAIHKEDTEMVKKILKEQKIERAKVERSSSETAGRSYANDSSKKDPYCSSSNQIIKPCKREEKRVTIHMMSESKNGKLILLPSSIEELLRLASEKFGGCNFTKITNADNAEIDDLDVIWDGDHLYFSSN
T2 sequence (Q94526 other isoform, or with tags, fused parts or gaps with the stated changes): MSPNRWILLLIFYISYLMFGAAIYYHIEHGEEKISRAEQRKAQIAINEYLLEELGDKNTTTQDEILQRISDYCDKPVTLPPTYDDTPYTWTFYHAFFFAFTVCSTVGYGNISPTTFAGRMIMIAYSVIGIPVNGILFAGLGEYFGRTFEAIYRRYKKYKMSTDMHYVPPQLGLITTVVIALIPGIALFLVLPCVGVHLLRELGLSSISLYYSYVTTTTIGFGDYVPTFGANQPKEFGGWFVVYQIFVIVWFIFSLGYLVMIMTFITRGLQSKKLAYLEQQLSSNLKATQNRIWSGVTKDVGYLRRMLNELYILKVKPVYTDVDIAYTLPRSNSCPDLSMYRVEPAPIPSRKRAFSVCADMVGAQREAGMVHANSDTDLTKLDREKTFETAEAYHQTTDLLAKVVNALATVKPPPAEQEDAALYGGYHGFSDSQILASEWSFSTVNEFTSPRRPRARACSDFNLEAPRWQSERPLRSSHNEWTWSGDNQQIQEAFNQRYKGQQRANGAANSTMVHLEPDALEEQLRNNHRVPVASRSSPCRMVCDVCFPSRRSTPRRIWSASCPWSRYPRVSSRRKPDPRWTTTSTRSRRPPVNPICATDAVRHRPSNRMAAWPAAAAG
T3 sequence (P63142 whole entry): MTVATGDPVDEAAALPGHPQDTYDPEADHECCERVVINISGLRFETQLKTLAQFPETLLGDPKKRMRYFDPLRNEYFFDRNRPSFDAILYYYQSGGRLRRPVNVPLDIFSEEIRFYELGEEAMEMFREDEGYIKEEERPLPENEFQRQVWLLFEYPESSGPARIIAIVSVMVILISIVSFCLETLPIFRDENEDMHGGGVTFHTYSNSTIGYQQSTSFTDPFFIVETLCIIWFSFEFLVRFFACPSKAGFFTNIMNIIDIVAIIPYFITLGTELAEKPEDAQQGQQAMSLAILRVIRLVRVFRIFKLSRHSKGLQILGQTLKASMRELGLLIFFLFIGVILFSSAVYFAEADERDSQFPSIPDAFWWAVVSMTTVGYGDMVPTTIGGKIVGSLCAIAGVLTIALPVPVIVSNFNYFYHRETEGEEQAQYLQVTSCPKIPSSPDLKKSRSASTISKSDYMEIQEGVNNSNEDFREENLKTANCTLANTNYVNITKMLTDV

In the case of `[Cl-].[Cs+]` [CsCl], the “inhibition of growth of TPKC1-containing CY162 cells” value in assay [1] is “inhibited”. Also, the “block of DmORF1-dependent growth” value in assay [2] is “not”. For the same molecule, in assay [3], the “block of RATRAK-dependent growth” value is listed as “blocked”. In assay [4], the “block of TPKC1 current” value is “failed to block”. Also, the “block of KAT-dependent growth” value in assay [5] is given as “blocked”.
As for `C=C[C@H]1C[N@@]2CC[C@H]1C[C@H]2[C@H](O)c1ccnc2ccc(OC)cc12` [quinine], the “inhibition of growth of TPKC1-containing CY162 cells” value in assay [1] is given as “inhibited”. The “block of TPKC1 current” value in assay [4] is “block to a lesser degree”.
As to `CC[N+](CC)(CC)CC` [TEA], the “inhibition of growth of TPKC1-containing CY162 cells” value in assay [1] is “not”. In assay [2], the “block of DmORF1-dependent growth” value is recorded as “not”. Also, the “block of RATRAK-dependent growth” value in assay [3] was “blocked”. Besides, the “block of TPKC1 current” value in assay [4] is listed as “failed to block”. In addition, in assay [5], the “block of KAT-dependent growth” value was “blocked”.
Turning to `[Cl-].[Rb+]` [RbCl], in assay [6], the “growth of control pYES-containing strain around applied compound” value is on record as “grows only around applied”.
Turning to `[Cl-].[K+]` [KCl], the “growth of control pYES-containing strain around applied compound” value in assay [6] was “grows only around applied”.
With `[Ba+2].[Cl-].[Cl-]` [BaCl2], the “inhibition of growth of TPKC1-containing CY162 cells” value in assay [1] was “inhibited”. Moreover, in assay [2], the “block of DmORF1-dependent growth” value is listed as “blocked”. The “block of RATRAK-dependent growth” value in assay [3] is given as “blocked”. Also, the “inhibition of 86Rb uptake” value in assay [7] is “inhibited”. The “attenuation of DmORF1 potassium currents” value in assay [8] was “greatly attenuated”. Also, the “inhibition of TPKC1 current” value in assay [4] (applied at 1 mM, FIG. 11D) is recorded as 50%. Besides, the “block of KAT-dependent growth” value in assay [5] is “blocked”.
Take `[Ca+2]` [Ca^2+]: the “inhibition of growth of TPKC1-containing CY162 cells” value in assay [1] is listed as “inhibited”. Besides, the “block of TPKC1 current” value in assay [4] was “block to a lesser degree”.
For `Nc1ccncc1` [4-AP], the “block of TPKC1 current” value in assay [4] is “block to a lesser degree”.
